Consider seven compounds from US20260138973A1, “SUBSTITUTED PYRIDINES FOR USE IN TREATING OR PREVENTING INFLAMMATORY DISEASES OR DISEASES ASSOCIATED WITH AN UNDESIRABLE IMMUNE RESPONSE” (SITRYX THERAPEUTICS LIMITED, priority 2022, published 2026).

The test system of data set [1] is hepatocytes. Kind of data set: Hepatocyte stability assay, human. It counts as in vitro ADME. The source says:
(§1) Defrosted cryo-preserved hepatocytes (viability >70%) were used to determine the metabolic stability of a compound via calculation of intrinsic clearance (Clint; a measure of the removal of a compound from the liver in the absence of blood flow and cell binding). Clearance data are particularly important for in vitro work as they can be used in combination with in vivo data to predict the half-life and oral bioavailability of a drug.
(§2) The metabolic stability in hepatocytes assay involves a time-dependent reaction using both positive and negative controls. The cells were pre-incubated at 37° C. then spiked with test compound (and positive control); samples were taken at pre-determined time intervals and were analysed to monitor the change in concentration of the initial drug compound over 60 minutes. A buffer incubation reaction (with no hepatocytes present) acted as a negative control and two cocktail solutions, containing compounds with known high and low clearance values (verapamil/7-hydroxycoumarin and propranolol/diltiazem), acted as positive controls. • 1. The assay was run with a cell concentration of 0.5×10^6 cells/mL in Leibovitz buffer. • 2. All compounds and controls were run in duplicate. • 3. Compound concentration was 10 μM. • 4. All compounds and controls were incubated with both cells and buffer to show turnover was due to hepatic metabolism. • 5. All wells on the incubation plate had 326.7 μL of either cells or buffer added. • 6. Prior to assay, cell and buffer-only incubation plates were preincubated for 10 mins at 37° C. • 7. The assay was initiated by adding compounds, 3.3 μL of 1 mM in 10% DMSO-90% Buffer; final DMSO concentration was 0.1%. • 8. Samples were taken at regular timepoints (0, 5, 10, 20, 40, 60 min) until 60 mins. • 9. Sample volume was 40 μL and was added to 160 μL of crash solvent (acetonitrile with internal standard) and stored on ice. • 10. At the end of the assay, the crash plates were centrifuged at 3500 rpm for 20 mins at 4° C. • 11. 80 μL of clear supernatant was removed and mixed with 80 μL of deionised water before being analysed by LC-MS/MS.
(§3) Raw LC-MS/MS data was exported to, and analysed in, Microsoft Excel for determination of intrinsic clearance. The percentage remaining of a compound was monitored using the peak area of the initial concentration as 100%. Intrinsic clearance and half-life values were calculated using a graph of the natural log of percentage remaining versus the time of reaction in minutes. Half-life (min) and intrinsic clearance (Clint in μL min^−1 10^−6 cells) values were calculated using the gradient of the graph (the elimination rate constant, k) and Equations 1 and 2.

Data set [2] can be described thus: Hepatocyte stability assay, human. It counts as in vitro ADME. The note with it: cryopreserved hepatocytes; Human hepatocytes, 10 μM compound, 0.5×10^6 cells/mL; read-out: T½.
Source text: as §1, §2, §3

Data set [3] concerns hepatocytes. Kind of data set: Hepatocyte stability assay, mouse. To be noted: 10 μM compound, 0.5×10^6 cells/mL. It counts as in vitro ADME.
Source text: as §1, §2, §3

The subject of data set [4] is IL-1β. Kind of data set: THP-1 AlphaLISA IL-1β cytokine inhibition assay (differentiated THP-1 cells, LPS then nigericin). It counts as cell-based. To be noted: for IC50: THP-1 cell, PMA-differentiated, LPS 24 hr + nigericin 1 hour; for effectiveness in the IL-1β assay: THP-1 cells, result in words. How it is done:
Measuring Inhibitory Effects on IL-1β Cytokine Output from THP-1s
The cytokine inhibition profiles of compounds of formula (I) were determined in a differentiated THP-1 cell assay. All assays were performed in RPMI-1640 growth medium (Gibco), supplemented with 10% fetal bovine serum (FBS; Gibco), 1% penicillin-streptomycin and 1% sodium pyruvate unless specified otherwise. The IL-1β cytokine inhibition assay was run in a background of differentiated THP-1 cells as described below. All reagents described were from Sigma-Aldrich unless specified otherwise. Compounds were prepared as 10 mM DMSO stocks.
THP-1 cells were expanded as a suspension up to 80% confluence in appropriate growth medium. Cells were harvested, suspended, and treated with an appropriate concentration of phorbol 12-myristate 13-acetate (PMA) over a 72 hr period (37° C./5% CO2).
Following 72 hrs of THP-1 cell incubation, cellular medium was removed and replaced with fresh growth media containing 1% of FBS. Working concentrations of compounds were prepared separately in 10% FBS treated growth medium and pre-incubated with the cells for 30 minutes (37° C./5% CO2). Following the 30 minute compound pre-incubation, THP-1s were treated with an appropriate concentration of LPS and the cells were subsequently incubated for a 24 hr period (37° C./5% CO2). An appropriate final concentration of Nigericin was then dispensed into the THP-1 plates and incubated for 1 hour (37° C./5% CO2) before THP-1 supernatants were harvested and collected in separate polypropylene 96-well holding plates.
Reagents from an IL-1β and IL-6 commercial kit (Perkin Elmer) were prepared and run according to the manufacturer's instructions. Subsequently, fluorescence signal detection in a microplate reader was measured (EnVision® Multilabel Reader, Perkin Elmer).
Percentage inhibition was calculated per cytokine by normalising the sample data to the high and low controls used within each plate (+/−LPS respectively). Percentage inhibition was then plotted against compound concentration and the 50% inhibitory concentration (IC50) was determined from the resultant concentration-response curve.
(In Alpha technology, singlet oxygen from a donor bead excites a nearby acceptor bead.)

Data set [5] deals with NRF2. As to the kind of experiment: DiscoverX PathHunter NRF2 translocation assay +/-GSH in U2OS cells. The note with it: for EC50: U2OS PathHunter cells, 6 hours, read-out: NRF2 activation EC50; for NRF2 activation Emax: normalised to DMF high control. The class given is cell-based. How it is done:
Potency and efficacy of compounds of formula (I) against the target of interest to activate NRF2 (nuclear factor erythroid 2-related factor 2) were determined using the PathHunter NRF2 translocation kit (DiscoverX). The NRF2 translocation assay was run using an engineered recombinant cell line, utilising enzyme fragment complementation to determine activation of the Keap1-NRF2 protein complex and subsequent translocation of NRF2 into the nucleus. Enzyme activity was quantified using a chemiluminescent substrate consumed following the formation of a functional enzyme upon PK-tagged NRF2 translocation into the nucleus.
The assay was run under both +/−GSH (glutathione) conditions to determine the sensitivity of the compounds' NRF2-activating abilities to attenuation by GSH.
Additionally, a defined concentration of DMF was used as the ‘High’ control to normalise test compound activation responses to.
U2OS PathHunter express cells were thawed from frozen prior to plating. Following plating, U2OS cells were incubated for 24 hrs (37° C./5% CO2) in commercial kit provided cell medium.
Following 24 hrs of U2OS incubation, cells were directly treated with an appropriate final concentration of compound, for −GSH conditions or, for +GSH conditions, an intermediate plate containing 6× working concentrations of compound stocks was prepared in a 6 mM working concentration of GSH solution (solubilised in sterile PBS). Following a 30 minute compound-GSH pre-incubation (37° C./5% CO2) for +GSH treatment, plated U2OS cells were incubated with an appropriate final concentration of compound and GSH.
Following compound (+/−GSH) treatment, the U2OS plates were incubated for a further 6 hours (37° C./5% CO2) before detection reagent from the PathHunter NRF2 commercial kit was prepared and added to test plates according to the manufacturer's instructions. Subsequently, the luminescence signal detection was measured in a microplate reader (PHERAstar®, BMG Labtech).
Percentage activation was calculated by normalising the sample data to the high and low controls used within each plate (+/−DMF). Percentage activation/response was then plotted against compound concentration and the 50% activation concentration (EC50) was determined from the plotted concentration-response curve.

Data set [6] relates to IL-6. As to the kind of experiment: THP-1 AlphaLISA IL-6 cytokine inhibition assay (differentiated THP-1 cells, LPS then nigericin). It counts as cell-based. To be noted: THP-1 cell, PMA-differentiated, LPS 24 hr + nigericin 1 hour. The procedure: The cytokine inhibition profiles of compounds of formula (I) were determined in a differentiated THP-1 cell assay. All assays were performed in RPMI-1640 growth medium (Gibco), supplemented with 10% fetal bovine serum (FBS; Gibco), 1% penicillin-streptomycin and 1% sodium pyruvate unless specified otherwise. The IL-1β cytokine inhibition assay was run in a background of differentiated THP-1 cells as described below. All reagents described were from Sigma-Aldrich unless specified otherwise. Compounds were prepared as 10 mM DMSO stocks. THP-1 cells were expanded as a suspension up to 80% confluence in appropriate growth medium. Cells were harvested, suspended, and treated with an appropriate concentration of phorbol 12-myristate 13-acetate (PMA) over a 72 hr period (37° C./5% CO2). Following 72 hrs of THP-1 cell incubation, cellular medium was removed and replaced with fresh growth media containing 1% of FBS. Working concentrations of compounds were prepared separately in 10% FBS treated growth medium and pre-incubated with the cells for 30 minutes (37° C./5% CO2). […] Subsequently, fluorescence signal detection in a microplate reader was measured (EnVision® Multilabel Reader, Perkin Elmer). Percentage inhibition was calculated per cytokine by normalising the sample data to the high and low controls used within each plate (+/−LPS respectively).

The nature of data set [7]: Hepatocyte stability assay, mouse. It counts as in vitro ADME. The note with it: cryopreserved hepatocytes, 10 μM compound, 0.5×10^6 cells/mL, read-out: T½.
Source text: as §1, §2, §3

Where [8] appears, read: Human hepatocytes, 10 μM compound, 0.5×10^6 cells/mL.

Structures are written as SMILES. Structures can show the parent of a compound that is named as a salt. Where two headings read alike, the source gives them in different places. Bounds are passed on as bounds.

Consider `C=C(Cc1ccccc1Cl)C(=O)O` [2-(2-chlorobenzyl)acrylic acid, reference compound], for which the results for the Clint in data set [1] (setting [8]) and in data set [3] were 21 μL min^−1 10^−6 cells and 95 μL min^−1 10^−6 cells, respectively. The half-life at 10 μM in data set [2] amounted to 59 min. In addition, the IC50 (in general, the midpoint of a concentration-inhibition curve) in data set [4] (Homo sapiens) is over 100 µM. In addition, the EC50 in data set [5] (+GSH) and in data set [5] (−GSH) was over 100 µM throughout. In addition, the figures for the “NRF2 activation Emax” value in data set [5] (+GSH) and in data set [5] (−GSH) were 9% and 2%, respectively.

As to `C=C(CC(=O)OCCCCCCCC)C(=O)O` [4-octyl itaconate, reference compound], the IC50 in data set [6] was determined as 19.1 µM; in data set [4] it was 37.8 µM. The Clint is recorded as 401 μL min^−1 10^−6 cells in data set [1] (setting [8]) and 351 μL min^−1 10^−6 cells in data set [3]. Moreover, the T½ in data set [1] (setting [8]) and in data set [3] was 4 min in each case. Besides, the EC50 (usually the midpoint of the concentration-response curve) was 28.9 µM in data set [5] (+GSH) and 22.1 µM in data set [5] (−GSH). Also, the “NRF2 activation Emax” value in data set [5] (+GSH) was 148%; in data set [5] (−GSH), 165%.

In the case of `C=C(Cc1nc(-c2ccc(OCCCC)nc2)no1)C(=O)O` [Example 1, 2-((3-(6-butoxypyridin-3-yl)-1,2,4-oxadiazol-5-yl)methyl)acrylic acid], the IC50 in data set [4] (Homo sapiens) is over 100 µM. Moreover, in data set [4], the “effectiveness in the IL-1β assay” value is recorded as “not effective”. The half-maximal effective concentration (EC50) is 19.5 µM in data set [5] (+GSH) and 20.8 µM in data set [5] (−GSH). The entries for the “NRF2 activation Emax” value in data set [5] (+GSH) and in data set [5] (−GSH) were 130% and 192.5%, respectively.

For the compound `C=C(Cc1nc(-c2ccc(OCCCC)cn2)no1)C(=O)O` [Example 2, 2-((3-(5-butoxypyridin-2-yl)-1,2,4-oxadiazol-5-yl)methyl)acrylic acid], in data set [4] (Homo sapiens), the IC50 was over 100 µM. Besides, in data set [4], the “effectiveness in the IL-1β assay” value is on record as “not effective”.

`C=C(Cc1nc(-c2ncc(OCCCC)cc2Cl)no1)C(=O)O` [Example 3, 2-((3-(5-butoxy-3-chloropyridin-2-yl)-1,2,4-oxadiazol-5-yl)methyl)acrylic acid]: the Clint was 7.18 μL min^−1 10^−6 cells in data set [1] (setting [8]) and 133 μL min^−1 10^−6 cells in data set [3]. Moreover, the “stability (intrinsic clearance and half-life) compared to 4-octyl itaconate and 2-(2-chlorobenzyl)acrylic acid” value in data set [1] (mouse and/or human cells, result in words) is listed as “more stable”. In addition, the half-life at 10 μM in data set [2] worked out at 181 min; in data set [7], 9.27 min. Besides, in data set [4] (Homo sapiens), the IC50 was 2.09 µM. The EC50 in data set [5] (+GSH) is 11.4 µM; in data set [5] (−GSH), 22.7 µM. Also, the entries for the “NRF2 activation Emax” value in data set [5] (+GSH) and in data set [5] (−GSH) were 78.58% and 172.5%, respectively.

Take `C=C(Cc1nc(-c2ncc(Oc3ccc(F)cc3)cc2Cl)no1)C(=O)O` [Example 4, 2-((3-(3-chloro-5-(4-fluorophenoxy)pyridin-2-yl)-1,2,4-oxadiazol-5-yl)methyl)acrylic acid]: the IC50 in data set [4] (Homo sapiens) was determined as 2.12 µM. Besides, in data set [5] (+GSH), the EC50 turned out to be 15.5 µM and the “NRF2 activation Emax” value is on record as 145%. In data set [5] (−GSH), the EC50 is 7.07 µM and the “NRF2 activation Emax” value was determined as 208.56%.

Turning to `COC(=O)/C=C/C(=O)O` [monomethyl fumarate, reference compound], the IC50 in data set [6] (Homo sapiens) and in data set [4] (Homo sapiens) was over 100 µM in each case.
